Measured values as given in PubChem BioAssay AID248 (DTP/NCI, 2004).
“And” between values parts separate entries of the source, which are not always exact repeats. Equal values may be shown once. Toxic doses and inconclusive results are not listed. No stated cut-off is given here; in the data, active means T/C of 150% or more; inactive means T/C below 125%.

System: L1210 leukemia ip in BDF1 mice, survival T/C
Test: NCI In Vivo Anticancer Drug Screen. Data for tumor model L1210 Leukemia (intraperitoneal) in B6D2F1 (BDF1) mice
Details: endpoint: mean survival time, higher = longer survival
In short: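 In this screen, tumor-bearing mice given compound are compared to those given vehicle, and their survival values are reported as a treated-to-control quotient.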

[1] = dose: 100.0 mg/kg/injection, schedule: Q01DX009 (ip), vehicle: Klucel (hydroxypropylcellulose) (HPC)
[2] = dose: 200.0 mg/kg/injection, schedule: Q01DX009 (ip), vehicle: Klucel (hydroxypropylcellulose) (HPC)
[3] = dose: 400.0 mg/kg/injection, schedule: Q01DX009 (ip), vehicle: Klucel (hydroxypropylcellulose) (HPC)
[4] = dose: 100.0 mg/kg/injection, schedule: Q04DX003 (ip), vehicle: saline
[5] = dose: 200.0 mg/kg/injection, schedule: Q04DX003 (ip), vehicle: saline
[6] = dose: 400.0 mg/kg/injection, schedule: Q04DX003 (ip), vehicle: saline
[7] = dose: 100.0 mg/kg/injection, schedule: Q01DX001 (ip), vehicle: saline
[8] = dose: 200.0 mg/kg/injection, schedule: Q01DX001 (ip), vehicle: saline
[9] = dose: 400.0 mg/kg/injection, schedule: Q01DX001 (ip), vehicle: saline
[10] = dose: 50.0 mg/kg/injection, schedule: Q01DX009 (ip), vehicle: saline with Tween-80
[11] = dose: 100.0 mg/kg/injection, schedule: Q01DX009 (ip), vehicle: saline with Tween-80
[12] = dose: 200.0 mg/kg/injection, schedule: Q01DX009 (ip), vehicle: saline with Tween-80
[13] = dose: 100.0 mg/kg/injection, schedule: Q04DX003 (ip), vehicle: saline with Tween-80
[14] = dose: 200.0 mg/kg/injection, schedule: Q04DX003 (ip), vehicle: saline with Tween-80
[15] = dose: 400.0 mg/kg/injection, schedule: Q01DX009 (ip), vehicle: saline with Tween-80
[16] = dose: 400.0 mg/kg/injection, schedule: Q04DX003 (ip), vehicle: saline with Tween-80
[17] = dose: 125.0 mg/kg/injection, schedule: Q01DX Z (ip), vehicle: carboxymethylcellulose (CMC)
[18] = dose: 500.0 mg/kg/injection, schedule: Q01DX Z (ip), vehicle: carboxymethylcellulose (CMC)
[19] = dose: 100.0 mg/kg/injection, schedule: Q01DX009 (ip), vehicle: saline
[20] = dose: 200.0 mg/kg/injection, schedule: Q01DX009 (ip), vehicle: saline

Measured: T/C

c1ccc(C(NC2=NCCCCCC2)c2ccco2)cc1 (stereo not given)
inactive: dose: 12.5 mg/kg/injection, schedule: Q01DX009 (ip), vehicle: Klucel (hydroxypropylcellulose) (HPC) 98 % of control | dose: 25.0 mg/kg/injection, schedule: Q01DX009 (ip), vehicle: Klucel (hydroxypropylcellulose) (HPC) 100 % of control

COc1ccc(Cl)cc1NC(=O)Oc1cc(C)c(Cl)c(C)c1
inactive: [1] 104 % of control | [2] 95 % of control | [3] 112 % of control

Cc1ccc([N+](=O)[O-])cc1NC(=O)Nc1cccc2c(O)cccc12
inactive: [1] 86 % of control | [2] 100 % of control

C#CC1(OC(O)C(Cl)(Cl)Cl)CCCCC1 (stereo not given)
inactive: [4] 103 % of control | [5] 106 % of control | [6] 103 % of control

N#Cc1cn(C2OC(CO)C(O)C2O)c2ncnc([Se]Cc3ccc([N+](=O)[O-])cc3)c12 (stereo not given)
inactive: dose: 3.12 mg/kg/injection, schedule: Q01DX005 (ip), vehicle: saline 109 % of control | dose: 6.25 mg/kg/injection, schedule: Q01DX005 (ip), vehicle: saline 106 % of control | dose: 12.5 mg/kg/injection, schedule: Q01DX005 (ip), vehicle: saline 102 % of control

CCN1CCN(CC)C1(Br)C1(Br)N(CC)CCN1CC
inactive: dose: 75.0 mg/kg/injection, schedule: Q04DX002 (ip), vehicle: saline with Tween-80 91 % of control | dose: 150.0 mg/kg/injection, schedule: Q04DX002 (ip), vehicle: saline with Tween-80 91 % of control | dose: 300.0 mg/kg/injection, schedule: Q04DX002 (ip), vehicle: saline with Tween-80 98 % of control

CCOC(=S)SCCSC(=S)OCC
inactive: [7] 105 % of control | [8] 100 % of control | [9] 97 % of control

CCOCCC(=O)CC(=O)OC
inactive: [10] 96 % of control | [11] 100 % of control | [12] 96 % of control

CCN1OCC(C)(C(=O)OC)C1C (stereo not given)
inactive: [4] 102 % of control | [5] 97 % of control | [6] 107 % of control

S=C(c1ccc2ccccc2n1)N1CCOCC1
inactive: dose: 100.0 mg/kg/injection, schedule: Q04DX003 (ip), vehicle: Klucel (hydroxypropylcellulose) (HPC) 100 % of control | dose: 200.0 mg/kg/injection, schedule: Q04DX003 (ip), vehicle: Klucel (hydroxypropylcellulose) (HPC) 91 % of control | dose: 400.0 mg/kg/injection, schedule: Q04DX003 (ip), vehicle: Klucel (hydroxypropylcellulose) (HPC) 105 % of control

CCCCCCCCCCCC(=O)CC
inactive: [10] 96 % of control | [11] 100 % of control | [13] 98 % of control | [12] 92 % of control and 93 % of control | [14] 103 % of control | [15] 94 % of control | [16] 98 % of control

CC(=O)Nc1cc(N)cc(NC(C)=O)c1
inactive: dose: 50.0 mg/kg/injection, schedule: Q01DX009 (ip), vehicle: water 91 % of control | dose: 100.0 mg/kg/injection, schedule: Q01DX009 (ip), vehicle: water 103 % of control and 107 % of control | dose: 100.0 mg/kg/injection, schedule: Q04DX003 (ip), vehicle: water 100 % of control | dose: 200.0 mg/kg/injection, schedule: Q01DX009 (ip), vehicle: water 102 % of control and 103 % of control | dose: 200.0 mg/kg/injection, schedule: Q04DX003 (ip), vehicle: water 98 % of control | dose: 400.0 mg/kg/injection, schedule: Q01DX009 (ip), vehicle: water 93 % of control

CCCCNC(C)(C)CSS(=O)(=O)O
inactive: [10] 97 % of control | [11] 109 % of control | [13] 96 % of control | [12] 103 % of control | [14] 96 % of control | [15] 103 % of control | [16] 96 % of control

CCn1cnc2c(SC3CCCC3)ncnc21
inactive: dose: 15.0 mg/kg/injection, schedule: Q01DX015 (ip), vehicle: carboxymethylcellulose (CMC) 96 % of control | dose: 30.0 mg/kg/injection, schedule: Q01DX015 (ip), vehicle: carboxymethylcellulose (CMC) 104 % of control | dose: 62.0 mg/kg/injection, schedule: Q01DX015 (ip), vehicle: carboxymethylcellulose (CMC) 110 % of control | dose: 62.0 mg/kg/injection, schedule: Q01DX Z (ip), vehicle: carboxymethylcellulose (CMC) 95 % of control | dose: 125.0 mg/kg/injection, schedule: Q01DX015 (ip), vehicle: carboxymethylcellulose (CMC) 124 % of control | [17] 113 % of control | [18] 101 % of control

CCOC(=O)/C(C)=C\C1C(C)=CCCC1(C)C (stereo not given)
inactive: [1] 104 % of control | [2] 102 % of control | [3] 96 % of control

Cc1c(NC(=O)OCc2ccccc2)no[n+]1[O-]
inactive: dose: 100.0 mg/kg/injection, schedule: Q04DX002 (ip), vehicle: saline 102 % of control | dose: 200.0 mg/kg/injection, schedule: Q04DX002 (ip), vehicle: saline 98 % of control | dose: 400.0 mg/kg/injection, schedule: Q04DX002 (ip), vehicle: saline 98 % of control

CO[CH2][Pb]([c]1ccccc1)([c]1ccccc1)[c]1ccccc1
inactive: dose: 100.0 mg/kg/injection, schedule: Q04DX002 (ip), vehicle: saline with Tween-80 98 % of control | dose: 200.0 mg/kg/injection, schedule: Q04DX002 (ip), vehicle: saline with Tween-80 94 % of control | dose: 400.0 mg/kg/injection, schedule: Q04DX002 (ip), vehicle: saline with Tween-80 94 % of control

O=C(O)C/C=C/c1ccccc1Br
inactive: dose: 100.0 mg/kg/injection, schedule: Q01DX001 (ip), vehicle: Klucel (hydroxypropylcellulose) (HPC) 91 % of control | dose: 200.0 mg/kg/injection, schedule: Q01DX001 (ip), vehicle: Klucel (hydroxypropylcellulose) (HPC) 101 % of control | dose: 400.0 mg/kg/injection, schedule: Q01DX001 (ip), vehicle: Klucel (hydroxypropylcellulose) (HPC) 95 % of control

Cc1c(CN(C)C)cccc1C(=O)Nc1ccccc1
inactive: dose: 50.0 mg/kg/injection, schedule: Q01DX001 (ip), vehicle: saline 115 % of control | [8] 104 % of control

O=[N+]([O-])c1cccc(S(=O)(=O)OCCOc2ccccc2)c1
inactive: [13] 103 % of control | [14] 101 % of control | [16] 101 % of control

[Br][Sn]([Br])([c]1cccc2ccccc12)[c]1cccc2ccccc12
inactive: dose: 100.0 mg/kg/injection, schedule: Q01DX001 (ip), vehicle: saline with Tween-80 102 % of control | dose: 200.0 mg/kg/injection, schedule: Q01DX001 (ip), vehicle: saline with Tween-80 93 % of control | dose: 400.0 mg/kg/injection, schedule: Q01DX001 (ip), vehicle: saline with Tween-80 93 % of control

NC(C=O)C(O)C(O)C(O)CO (stereo not given)
inactive: dose: 50.0 mg/kg/injection, schedule: Q01DX009 (ip), vehicle: saline 94 % of control | [7] 104 % of control and 93 % of control | [19] 94 % of control | [17] 100 % of control | [8] 105 % of control and 102 % of control | [20] 94 % of control | dose: 250.0 mg/kg/injection, schedule: Q01DX Z (ip), vehicle: carboxymethylcellulose (CMC) 94 % of control | [9] 102 % of control and 96 % of control | [18] 96 % of control | dose: 750.0 mg/kg/injection, schedule: Q01DX009 (ip), vehicle: saline 100 % of control | dose: 1000.0 mg/kg/injection, schedule: Q01DX Z (ip), vehicle: carboxymethylcellulose (CMC) 95 % of control | dose: 1500.0 mg/kg/injection, schedule: Q01DX009 (ip), vehicle: saline 104 % of control | dose: 3000.0 mg/kg/injection, schedule: Q01DX009 (ip), vehicle: saline 104 % of control and 107 % of control | dose: 5000.0 mg/kg/injection, schedule: Q01DX009 (ip), vehicle: saline 98 % of control

C#CCN
inactive: [7] 103 % of control | [19] 94 % of control | [8] 102 % of control | [20] 96 % of control | [9] 102 % of control | dose: 400.0 mg/kg/injection, schedule: Q01DX009 (ip), vehicle: saline 93 % of control
